Test results taken from article PMC12040169 (PLOS Biology, 2025).

Assay: in vitro
Settings: human, hela cells, % viability

SMILES	viability at 28.5 h, 10 µM	viability at 28.5 h, 10 µM (bulk resorufin, single well)
COc1ccc(Cl)cc1S(=O)(=O)N1CCCC(C(=O)NCc2ccccn2)C1 (centres unmarked) [CBK269761]	96.7%	–
O=C1NCCCC12CCN(Cc1cccs1)CC2 [CBK285346]	85.2%	–
Cc1oc(NC(=O)CN2CCN(c3ccccc3)CC2)c(C#N)c1C [CBK306044]	81.7%	–
O=[N+]([O-])c1cccc(C(Nc2cccnc2)c2cc(Cl)c3cccnc3c2O)c1 (centres unmarked) [CBK268629]	93.7%	–
COc1cccc(C(=O)Nc2cc3c(cc2C(O)c2ccccc2Cl)OCCO3)c1 (centres unmarked) [CBK268004]	99.3%	–
Cc1ncsc1CCOc1nc2ccccc2nc1C(F)(F)F [CBK115802]	95.2%	–
O=C(NS(=O)(=O)c1cccc(-c2nnco2)c1)C1CC1C1CCCCC1 (centres unmarked) [CBK305924]	90.8%	–
COc1ccc(OC)c(NC(=O)c2ccc3nccnc3c2)c1 [CBK268997]	106%	–
C=C(C)Cn1c(SCC(C)C)nnc1-c1ccccc1C(=O)NC(C)C [CBK200096]	87.8%	–
CS(=O)(=O)N1CCC(C(=O)NCCN2CCOCC2)CC1 [CBK270151]	100%	–
CC(=O)Nc1ccc(NC(=O)CSCC(=O)O)cc1 [CBK226269]	89.3%	–
CCCCC(Sc1ccc2nnc(-c3ccccn3)n2n1)C(=O)O (centres unmarked) [CBK287622]	112%	–
CCC(C)NC1=NC(=O)C(CC(=O)N(C)c2ccccc2)S1 (centres unmarked) [CBK059110T]	83.3%	–
O=C1NC(=O)C(CC(=O)N2CCC3(CCN(C(=O)Cc4c[nH]c5ccccc45)C3)C2)N1 (centres unmarked) [CBK131436]	92.8%	–
O=S(=O)(N1CCOCC1)N1CCN(CC(O)COc2ccc(-c3ccccc3)cc2)CC1 (centres unmarked) [CBK269301]	106%	–
O=C(O)CCc1ccc(-c2cccs2)n1NC(=O)c1ccc(Cl)cc1 [CBK264738]	95.5%	–
Cc1ccc(O)c(CN[C@@H]2CCC(=O)N[C@H]2c2cc(F)cc(F)c2)c1 [CBK283132]	94%	–
N=C(N)SCP(=O)(c1ccccc1)c1ccccc1 [CBK260990]	99.3%	–
Cc1ccc(C(=O)N[C@@H]2C[C@H](C)CC[C@H]2C(C)C)cc1C [CBK085823]	87.1%	–
Cc1cc(CN(C)Cc2cnn(-c3ccc(Cl)cc3)c2)n[nH]1 [CBK281912]	99.3%	–
O=C(CSc1nnc(-c2ccco2)o1)N1CCN(CC(=O)N2CCCC2)CC1 [CBK295136]	111%	–
CCC1CCCCN1C(=O)c1ccnc(C)c1 (centres unmarked) [CBK081093]	91.3%	–
CCc1nc(CC(=O)NC(c2ccc(F)cc2)C2CCCO2)cs1 (centres unmarked) [CBK306336]	117%	–

SMILES	viability at 28.5 h, 10 µM	viability at 28.5 h, 10 µM (bulk resorufin, single well)
Cc1[nH]c(=O)[nH]c(=S)c1C(=O)Nc1ccc2c(c1)OCO2 [CBK115519]	100%	–
CCc1nc2ccc(C(=O)NCCCN3CCCC3=O)cn2c1N(C)Cc1cccs1 [CBK145536]	95%	–
O=C(O)/C=C/c1cccc(-c2cn3ccnc3c(NCc3cccnc3)n2)c1 [CBK066283]	98.8%	–
CN1CCN(C(=O)CCC2CCCO2)C(c2ccccc2)C1 (centres unmarked) [CBK282015]	101%	–
CCC(Oc1ccccc1)C(=O)Nc1ccccc1-c1ccccc1 (centres unmarked) [CBK266031]	108%	–
CSCCC(=O)NCc1c(-c2ccccc2)noc1C [CBK144092]	85.9%	–
CO[C@@H]1CO[C@H]2[C@@H]1OC[C@@H]2NC(=O)Nc1cccc(C(F)(F)F)c1 [CBK289461]	112%	–
Cc1sc2ncn(CC(=O)NCCCN3CCCCC3)c(=O)c2c1C [CBK305831]	96.7%	–
Cc1cc(CN2CCCN(S(=O)(=O)c3ccc(C(F)(F)F)cc3Cl)CC2)cc(C)c1O [CBK063102]	91.2%	–
Cc1cc(C)c2nc(-c3cccnc3)cc(C(=O)N3CCN(S(=O)(=O)c4ccc(F)cc4)CC3)c2c1 [CBK267726]	95%	–
CC(C(=O)Nc1ccc(S(N)(=O)=O)cc1)N(C)Cc1cccs1 (centres unmarked) [CBK305945]	88.8%	–
CC(C)S(=O)(=O)N1C[C@@H](c2ccccc2)[C@H]2[C@H]1CCCCCN2C [CBK283083]	91.1%	–
Cc1cc(NC(=O)C(=O)NCCN2CCN(S(C)(=O)=O)CC2)ccc1Br [CBK265401]	85.4%	–
COc1ccc(CNC(=O)c2sc3ncnc(N(C)C4CCCCC4)c3c2C)cc1 [CBK294431]	78.9%	–
O=C(COC(=O)c1ccc2c(c1)C(=O)N(c1cccc(Cl)c1)C2=O)c1ccc(Br)cc1 [CBK262324]	94%	–
Cc1ccc2c(CSc3nc(N)cc(N)n3)cc(=O)oc2c1C [CBK297519]	87.7%	–
Cc1nc(C2CN(Cc3cc4ccccc4nc3Cl)CCO2)no1 (centres unmarked) [CBK305381]	96.5%	–
CCc1onc(C)c1C(=O)N1CCN(C2CCNC2)CC1 (centres unmarked) [CBK304258]	96%	–
O=C1Nc2ccc(C(=O)NCC(O)CO)cc2/C1=C/c1c[nH]c2ncccc12 (centres unmarked) [CBK115363C]	95.3%	–
Cc1nn(CC(=O)NC(C)(C)C)c(=O)c2cc3sccc3n12 [CBK284021]	80.9%	–
Cc1cccc(CN2CCC3(CCc4ccccc4C(=O)N3)C2)n1 (centres unmarked) [CBK284619]	106%	–
CN1CCC2CN(CCCC(c3ccc(F)cc3)c3ccc(F)cc3)CCN2C1=O (centres unmarked) [CBK024865C]	89.9%	–
Cc1cnc2n(c1=O)C(CC(=O)NCc1ccncc1)CS2 (centres unmarked) [CBK287671]	111%	–

SMILES	viability at 28.5 h, 10 µM	viability at 28.5 h, 10 µM (bulk resorufin, single well)
COc1cccc(-c2cnc(N)c(N3CCN(CCN(C)C)CC3)n2)c1 [CBK063561]	108%	–
CN(C)CCN(C)c1cncc(-c2cccc(/C=C/C(=O)O)c2)n1 [CBK065451]	99.5%	–
O=C(NCCn1cccn1)N1CCCN(Cc2ccncc2)CC1 [CBK307129]	90.1%	–
O=C(Cc1csc(-c2ccc(Cl)cc2)n1)NCC1CCCN1 (centres unmarked) [CBK160982]	106%	–
O=C(O)c1cc(C(=O)O)n(Cc2ccc(Cl)cc2Cl)n1 [CBK268283]	103%	–
CCc1nnc(SCc2cccc(C(=O)O)c2)o1 [CBK286993]	95.7%	–
NCCOc1ncccc1OCc1ccccc1 [CBK036305]	90.7%	–
Cc1nc2c(C)cccc2cc1C(=O)NCCCc1ccccn1 [CBK282148]	82.8%	–
Cc1cc(C)nc(N/C(=N\C(=S)Nc2cccc(Cl)c2C)NCc2cccnc2)n1 [CBK267254]	93.5%	–
CCOC(=O)CCCNC(=O)N1CCN(c2ccccc2)CC1 [CBK155209]	94.6%	–
O=C(NNC(=O)c1ccc2c(c1)C(=O)N(Cc1ccco1)C2=O)c1cccnc1 [CBK267403]	91%	–
Cc1cc(C=C2C(=O)NC(=O)NC2=O)c(C)n1C1CCCCC1 [CBK263426]	–	93.6%
CC1(c2ccccc2)CC(=O)N(CCC(=O)O)C1=O (centres unmarked) [CBK287091]	83.3%	–
O=S(=O)(Nc1nnc(C(F)(F)F)s1)c1ccc(F)cc1 [CBK026663]	91.4%	–
COc1ccc(N(CC(O)CN2CCOCC2)S(=O)(=O)c2ccccc2)cc1 (centres unmarked) [CBK263589]	84.5%	–
Nc1c(C(F)(F)F)cc(Cl)nc1Cl [CBK005620]	95.7%	–
CC1CN(CCNCc2cn(C)nc2-c2cccnc2)CC(C)O1 (centres unmarked) [CBK305151]	110%	–
CCN(CC)CCn1c2ccc(C)cc2c2nc(C)sc21 [CBK269764C]	99.7%	–
CCC1(C)CC(=O)c2cc(NC(=O)N(CCO)CCO)ccc2O1 (centres unmarked) [CBK307003]	116%	–
CCOC(=O)c1[nH]c2ccccc2c1NC(C)=O [CBK086755]	92.7%	–
Cc1c(NC(=O)CCCC(=O)O)cccc1C(=O)O [CBK265525]	95%	–
CC(C)Nc1cncc(Sc2cccc(C(=O)O)c2)n1 [CBK093582]	95.1%	–
O=C(Nc1cccc(Cl)c1)N[C@H]1C[C@H]2C(=O)NC[C@@H](CCC(=O)N3CCCC3)N2C1 [CBK289003]	96.1%	–

SMILES	viability at 28.5 h, 10 µM	viability at 28.5 h, 10 µM (bulk resorufin, single well)
Cc1nn(C)cc1S(=O)(=O)N1CCCC(c2cccc(Cc3ccccc3Cl)n2)C1 (centres unmarked) [CBK286127]	106%	–
S=C(NCC1CCCCC1)Nc1ncc(Cl)cc1Cl [CBK067053]	91%	–
Cc1ccsc1C(=O)Nc1ncn(CC(=O)N2CCCCCC2)n1 [CBK304192]	92.5%	–
CCn1c(C)nc2cc(NC(=O)Cn3cccn3)ccc21 [CBK281828]	89.5%	–
COc1cc(NC(=S)NCCN2CCOCC2)c(OC)cc1Cl [CBK265888]	101%	–
Cc1ccc(C)c(Sc2ccc(S(=O)(=O)Nc3ccc(C(=O)O)cc3)cc2)c1 [CBK297529]	109%	–
Fc1ccc(COc2ccccc2CNCCN2CCOCC2)cc1 [CBK278150C]	91.5%	–
Cc1[nH]c2cccc(C(=O)N(C)CCc3cn[nH]c3)c2c1C [CBK283070]	85.4%	–
CN(Cc1c(C2CCNCC2)[nH]c2ncccc12)C1CCCCC1 [CBK285079]	93.3%	–
CCC(C)(CC(=O)O)CC(=O)N1CCC2(CC1)OCCc1c2[nH]c2ccccc12 (centres unmarked) [CBK047051]	102%	–
COc1ccc(C(=O)CN2CCC3(CC2)CC(=O)c2cc(Br)ccc2O3)cc1 [CBK162265]	114%	–
N#CCCNS(=O)(=O)c1ccc(OC(F)(F)F)cc1 [CBK043560]	97.9%	–
COc1cc(/C=C2/C(=O)N(c3ccc(Cl)c(C(=O)O)c3)N=C2C)ccc1Oc1nc2c(c(=O)n(C)c(=O)n2C)n1C [CBK262962]	91.1%	–
COc1ccc(-n2nc([N+](=O)[O-])c(NCc3ccccn3)[n+]2[O-])cc1 [CBK268430]	96.3%	–
Cc1cc(NC(=O)CN2CC(C(=O)N3CCN(c4ccccc4)CC3)C2)no1 [CBK285665]	112%	–
S=C(NCCCN1CCOCC1)Nc1cccc(Cl)c1 [CBK263255]	95%	–
COc1cc(Br)c(/C=C(/C#N)C(=O)Nc2ccc(O)cc2)cc1OC [CBK262733]	79.9%	–
O=C(NCc1cccs1)c1ccc2[nH]ccc2c1 [CBK149060]	83.3%	–
CN1CCC(=NNC(=O)CCSc2ccc(Cl)cc2)CC1 [CBK020372]	99.6%	–
Cc1ccc(NC(=O)c2cc(C)[nH]n2)c(C)n1 [CBK200387]	83.8%	–
